The source of these data is patent US12589092B2, “Polycyclic compound acting as kinase inhibitor” (HANGZHOU INNOGATE PHARMA CO., LTD., priority 2020, dated 2026).

Molecules are shown by their SMILES.

TRKA, sequence (P04629 33-796): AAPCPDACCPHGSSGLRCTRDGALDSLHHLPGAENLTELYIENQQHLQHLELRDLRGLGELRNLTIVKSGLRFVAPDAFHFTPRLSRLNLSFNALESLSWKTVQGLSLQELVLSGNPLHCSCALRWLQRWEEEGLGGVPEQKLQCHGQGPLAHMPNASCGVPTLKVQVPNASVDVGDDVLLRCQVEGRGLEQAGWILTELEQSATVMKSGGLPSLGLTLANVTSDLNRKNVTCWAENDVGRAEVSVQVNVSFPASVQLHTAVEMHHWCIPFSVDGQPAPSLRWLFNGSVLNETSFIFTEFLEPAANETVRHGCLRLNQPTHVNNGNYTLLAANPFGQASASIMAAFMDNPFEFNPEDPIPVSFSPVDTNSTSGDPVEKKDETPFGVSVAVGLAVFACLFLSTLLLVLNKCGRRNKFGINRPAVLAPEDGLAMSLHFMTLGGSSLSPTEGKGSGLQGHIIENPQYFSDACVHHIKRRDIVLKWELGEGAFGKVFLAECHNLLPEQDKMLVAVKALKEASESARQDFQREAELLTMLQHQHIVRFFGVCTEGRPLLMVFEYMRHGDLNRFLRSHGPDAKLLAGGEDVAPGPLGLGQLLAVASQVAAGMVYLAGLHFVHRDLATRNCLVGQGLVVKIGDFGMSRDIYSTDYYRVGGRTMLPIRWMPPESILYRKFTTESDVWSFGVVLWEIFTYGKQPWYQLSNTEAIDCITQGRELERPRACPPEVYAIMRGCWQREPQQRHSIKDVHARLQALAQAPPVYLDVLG
CDK4/CycD3, sequence (P11802 whole entry): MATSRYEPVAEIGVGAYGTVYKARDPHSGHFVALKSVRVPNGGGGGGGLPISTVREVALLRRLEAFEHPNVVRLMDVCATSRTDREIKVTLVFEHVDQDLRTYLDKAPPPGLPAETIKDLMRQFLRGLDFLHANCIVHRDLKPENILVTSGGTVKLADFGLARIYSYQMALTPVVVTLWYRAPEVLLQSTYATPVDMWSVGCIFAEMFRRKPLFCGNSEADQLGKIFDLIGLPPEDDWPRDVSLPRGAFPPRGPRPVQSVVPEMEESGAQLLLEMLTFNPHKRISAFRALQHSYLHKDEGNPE
CDK4/CycD3, sequence (P30281 whole entry partner): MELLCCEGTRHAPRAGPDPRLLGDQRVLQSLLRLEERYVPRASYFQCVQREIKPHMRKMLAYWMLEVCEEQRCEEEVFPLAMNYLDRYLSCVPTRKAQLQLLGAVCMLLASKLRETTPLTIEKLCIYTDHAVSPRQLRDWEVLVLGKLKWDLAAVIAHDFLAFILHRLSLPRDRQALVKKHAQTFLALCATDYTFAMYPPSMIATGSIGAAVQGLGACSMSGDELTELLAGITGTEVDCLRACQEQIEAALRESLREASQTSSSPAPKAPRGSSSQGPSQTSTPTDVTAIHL
CDK16/CycY, sequence (Q00536 whole entry): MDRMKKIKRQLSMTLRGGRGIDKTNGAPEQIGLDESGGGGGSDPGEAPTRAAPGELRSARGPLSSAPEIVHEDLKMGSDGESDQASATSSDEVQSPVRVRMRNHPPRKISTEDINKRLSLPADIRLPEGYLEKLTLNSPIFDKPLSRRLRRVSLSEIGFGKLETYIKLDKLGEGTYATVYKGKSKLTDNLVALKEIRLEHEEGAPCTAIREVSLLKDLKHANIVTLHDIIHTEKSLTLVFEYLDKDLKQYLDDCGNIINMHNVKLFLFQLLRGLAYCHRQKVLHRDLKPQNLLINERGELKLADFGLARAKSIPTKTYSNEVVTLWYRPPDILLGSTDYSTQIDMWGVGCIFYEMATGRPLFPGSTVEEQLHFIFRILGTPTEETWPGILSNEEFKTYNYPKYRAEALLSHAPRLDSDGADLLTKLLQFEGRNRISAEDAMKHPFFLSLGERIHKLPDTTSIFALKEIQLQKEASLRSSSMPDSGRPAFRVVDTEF
CDK16/CycY, sequence (Q8ND76 whole entry partner): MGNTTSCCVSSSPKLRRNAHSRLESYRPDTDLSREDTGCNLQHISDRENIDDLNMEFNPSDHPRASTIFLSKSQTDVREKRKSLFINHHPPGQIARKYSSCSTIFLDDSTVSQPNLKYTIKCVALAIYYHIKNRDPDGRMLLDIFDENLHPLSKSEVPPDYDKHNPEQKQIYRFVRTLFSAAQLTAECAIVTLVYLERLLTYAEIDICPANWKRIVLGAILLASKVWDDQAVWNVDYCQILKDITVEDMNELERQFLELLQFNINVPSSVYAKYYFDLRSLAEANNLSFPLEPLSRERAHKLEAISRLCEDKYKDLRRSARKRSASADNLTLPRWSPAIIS
CDK9/CycT1, sequence (P50750 whole entry): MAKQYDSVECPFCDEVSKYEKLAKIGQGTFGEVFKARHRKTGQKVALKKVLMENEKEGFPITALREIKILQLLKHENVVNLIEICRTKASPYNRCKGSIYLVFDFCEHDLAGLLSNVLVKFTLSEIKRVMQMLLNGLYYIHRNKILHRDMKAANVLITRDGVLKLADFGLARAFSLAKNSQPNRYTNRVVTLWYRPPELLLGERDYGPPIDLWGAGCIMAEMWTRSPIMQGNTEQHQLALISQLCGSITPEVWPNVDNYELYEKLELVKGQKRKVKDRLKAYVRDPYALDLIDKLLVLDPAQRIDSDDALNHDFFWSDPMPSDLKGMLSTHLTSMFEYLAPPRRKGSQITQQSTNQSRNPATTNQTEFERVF
CDK9/CycT1, sequence (O60563 whole entry partner): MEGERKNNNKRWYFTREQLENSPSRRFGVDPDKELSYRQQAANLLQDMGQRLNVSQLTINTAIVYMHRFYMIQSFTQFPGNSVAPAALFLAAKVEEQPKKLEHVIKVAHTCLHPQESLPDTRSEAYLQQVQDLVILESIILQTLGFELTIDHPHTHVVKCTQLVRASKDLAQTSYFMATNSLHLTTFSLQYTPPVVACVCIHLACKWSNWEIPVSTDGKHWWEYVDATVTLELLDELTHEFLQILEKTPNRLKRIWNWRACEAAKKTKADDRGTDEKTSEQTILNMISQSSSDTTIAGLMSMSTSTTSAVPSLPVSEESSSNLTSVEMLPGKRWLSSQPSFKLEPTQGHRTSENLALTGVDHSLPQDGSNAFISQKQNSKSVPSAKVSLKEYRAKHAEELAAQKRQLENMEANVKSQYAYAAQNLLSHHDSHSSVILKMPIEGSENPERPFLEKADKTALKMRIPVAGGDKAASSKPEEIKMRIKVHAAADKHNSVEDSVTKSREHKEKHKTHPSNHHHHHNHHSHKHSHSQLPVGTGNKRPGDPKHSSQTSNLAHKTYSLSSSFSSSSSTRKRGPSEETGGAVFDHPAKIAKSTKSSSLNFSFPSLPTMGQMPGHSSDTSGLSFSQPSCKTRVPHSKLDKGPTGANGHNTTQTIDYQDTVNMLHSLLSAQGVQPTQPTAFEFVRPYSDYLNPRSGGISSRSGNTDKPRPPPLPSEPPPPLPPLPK
CDK6/cycD3, sequence (Q00534 whole entry): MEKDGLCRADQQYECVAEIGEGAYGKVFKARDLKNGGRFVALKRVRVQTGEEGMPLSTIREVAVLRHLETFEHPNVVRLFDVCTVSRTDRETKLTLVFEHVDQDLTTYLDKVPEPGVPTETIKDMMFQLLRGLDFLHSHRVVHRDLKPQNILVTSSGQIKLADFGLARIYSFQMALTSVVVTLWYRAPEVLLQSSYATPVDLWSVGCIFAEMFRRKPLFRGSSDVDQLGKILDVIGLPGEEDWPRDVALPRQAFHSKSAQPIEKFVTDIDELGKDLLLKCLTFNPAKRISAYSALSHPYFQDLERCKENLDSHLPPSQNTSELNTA
CDK6/cycD3, sequence (P30281 whole entry partner): as the sequence (P30281 whole entry partner) above

The first data set addresses CDK2/CycA2 (Homo sapiens, UniProt P24941). The experiment in a line: CDK2 kinase activity inhibition assay (caliper mobility shift). The data set is classed as biochemical. As to conditions: CDK2/CycA2 12 nM, ATP 39 μM; read-out: CDK2 kinase inhibitory activity (IC50). As to the method:
(§1) 1) CDK2, CDK4 and CDK6 Kinase Activity Inhibition Assay
(§2) In vitro enzymatic activity of the CDK isoforms CDK2/CycA2, CDK4/CycD3 and CDK6/cycD3 were measured using caliper mobility shift assay. Dissolve the compounds in DMSO and dilute them with corresponding kinase buffer (CDK2/CycA2 and CDK6/CycD3 were assayed with buffer conditions of 50 mM HEPES (pH 7.5), 10 mM MgCl2, 0.0015% Brij-35 and 2 mM dithiothreitol; CDK4/CycD3 was assayed with buffer condition of 20 mM HEPES (pH 7.5), 10 mM MgCl2, 0.01% Triton X-100 and 2 mM dithiothreitol). Add 5 μl of compound (10% DMSO) with 5 times the final concentration of the reaction to a 384-well plate. […] Collect conversion data on Caliper EZ Reader II (Caliper Life Sciences). Convert the conversion rate into inhibition rate data (% inhibition rate=(max−conversion rate)/(max−min)*100). […] Draw a curve with the concentration and inhibition rate of the compound as abscissa and ordinate, and use XLFit excel add-in version 4.3.1 software to fit the curve and calculate IC50.
As usually defined, the IC50 is the concentration that inhibits the measured activity by half. As for `CC(=O)c1c(C)c2cnc(Nc3ccc4c(c3)OC[C@H]3CN(C5CCOCC5)CCN43)nc2n(C2CCCC2)c1=O` [Compound 1R], the half-maximal inhibitory concentration (IC50) was below 100 nM.
As for `CC(=O)c1c(C)c2cnc(Nc3ccc4c(c3)OC[C@@H]3CN(C5CCN(C)CC5)CCN43)nc2n(C2CCCC2)c1=O` [Compound 2S], the IC50 is below 100 nM.
The same measure, in the same setting: the same measure for `CC(=O)c1c(C)c2cnc(Nc3ccc4c(c3)OC[C@@H]3CN(C5CCNCC5)CCN43)nc2n(C2CCCC2)c1=O` [Compound 3S]: below 100 nM.

Another data set deals with CDK4/CycD3 (Homo sapiens, UniProt P11802). In words: CDK4 kinase activity inhibition assay (caliper mobility shift). As to conditions: CDK4/CycD3 10 nM, ATP 221 μM; read-out: CDK4 kinase inhibitory activity (IC50). The data set is classed as biochemical. As to the method:
as §1, §2
With `CC(=O)c1c(C)c2cnc(Nc3ccc4c(c3)OC[C@H]3CN(C5CCOCC5)CCN43)nc2n(C2CCCC2)c1=O` [Compound 1R], the IC50 was below 10 nM.
The same measure, in the same setting: to `CC(=O)c1c(C)c2cnc(Nc3ccc4c(c3)OC[C@@H]3CN(C5CCN(C)CC5)CCN43)nc2n(C2CCCC2)c1=O` [Compound 2S] belongs below 10 nM; to `CC(=O)c1c(C)c2cnc(Nc3ccc4c(c3)OC[C@@H]3CN(C5CCNCC5)CCN43)nc2n(C2CCCC2)c1=O` [Compound 3S], below 10 nM.

The next data set addresses CDK6/cycD3 (Homo sapiens, UniProt Q00534). The experiment in a line: CDK6 kinase activity inhibition assay (caliper mobility shift). The data set is classed as biochemical. As to conditions: CDK6/cycD3 15 nM, ATP 800 μM; read-out: CDK6 kinase inhibitory activity (IC50). On the procedure:
as §1, §2
As to `CC(=O)c1c(C)c2cnc(Nc3ccc4c(c3)OC[C@H]3CN(C5CCOCC5)CCN43)nc2n(C2CCCC2)c1=O` [Compound 1R], the half-inhibitory concentration (IC50) is below 20 nM.
Same read-out and setting: the same measure for `CC(=O)c1c(C)c2cnc(Nc3ccc4c(c3)OC[C@@H]3CN(C5CCN(C)CC5)CCN43)nc2n(C2CCCC2)c1=O` [Compound 2S]: below 10 nM.
With `CC(=O)c1c(C)c2cnc(Nc3ccc4c(c3)OC[C@@H]3CN(C5CCNCC5)CCN43)nc2n(C2CCCC2)c1=O` [Compound 3S], the IC50 is below 10 nM.

The target in a further data set is CDK5/p35NCK (Homo sapiens, UniProt Q00535). The experiment in a line: CDK5 kinase activity inhibition assay (ADP-Glo). The data set is classed as biochemical. As to conditions: read-out: CDK5 kinase inhibitory activity (IC50). On the procedure: (§3) 3) CDK5, CDK9 and CDK16 Kinase Activity Inhibition Assay
CDK5/p35NCK, sequence (Q00535 whole entry): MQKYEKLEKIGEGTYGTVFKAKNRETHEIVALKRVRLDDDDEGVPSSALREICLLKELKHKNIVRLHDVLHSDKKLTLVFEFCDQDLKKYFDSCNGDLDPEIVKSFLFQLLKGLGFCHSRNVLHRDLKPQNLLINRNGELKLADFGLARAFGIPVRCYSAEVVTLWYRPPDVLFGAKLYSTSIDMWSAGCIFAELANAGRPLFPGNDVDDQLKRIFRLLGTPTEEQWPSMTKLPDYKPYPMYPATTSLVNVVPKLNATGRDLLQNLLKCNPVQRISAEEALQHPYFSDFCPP
CDK5/p35NCK, sequence (Q15078 whole entry partner): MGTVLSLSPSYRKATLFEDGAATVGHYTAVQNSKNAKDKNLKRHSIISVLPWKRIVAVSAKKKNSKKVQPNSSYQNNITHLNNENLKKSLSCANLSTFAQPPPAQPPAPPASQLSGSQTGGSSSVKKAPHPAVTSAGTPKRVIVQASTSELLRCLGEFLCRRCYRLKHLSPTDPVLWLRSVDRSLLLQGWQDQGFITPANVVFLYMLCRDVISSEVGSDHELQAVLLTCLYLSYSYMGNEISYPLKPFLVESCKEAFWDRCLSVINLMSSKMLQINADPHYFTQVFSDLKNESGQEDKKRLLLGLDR
(§4) CDK5/p35NCK, CDK9/CycT1 and CDK16/CycY protein kinase activities were determined using the ADP-Glo Kinase Assay. Dilute the positive compound and the test compound (10 mM stock solution) 25-fold with 100% DMSO, make a 4-fold serial dilution in a 96-well dilution plate, and add 1 μL of the compound to 49 μL of kinase reaction buffer (1 mM Tris, 20 mM MgCl2, 0.10% BSA and 0.5 mM DTT) on a microplate shaker for 20 min. Transfer 2 μL of 2× kinase to the 384-well reaction plate, add 1 μL of the test compound to the 384-well reaction plate, centrifuge at 1000 rpm/min for 1 min, and incubate at 25° C. for 10 min. Transfer 1 μL of the 4× substrate mix to the 384-well reaction plate, centrifuge at 1000 rpm/min for 1 min, and incubate at 25° C. for 60 min. Transfer 4 μL of ADP-Glo to the 384-well reaction plate to centrifuge at 1000 rpm/min for 1 min, and incubate at 25° C. for 40 min. Transfer 8 μL of detection solution to the 384-well reaction plate to centrifuge at 1000 rpm/min for 1 min, and incubate at 25° C. for 40 min. The RLU (Relative luminescence unit) signal was read using a Biotek multifunctional plate reader. Signal intensity is used to characterize the degree of kinase activity. Compound inhibition rate data: % inhibition rate=[1−(compound mean RLU−positive control mean RLU)/(negative control mean RLU−positive control mean RLU)]*100. Taking the log value of the concentration as the X axis and the percentage inhibition rate as the Y axis, the log(inhibitor) vs. response-Variable slope of the analysis software GraphPad Prism 5 was used to fit the dose-response curve to obtain the IC50 value of each compound on the enzyme activity.
On the technique in general: ADP-Glo first removes unused ATP, then detects ADP through luciferase.
Consider `CC(=O)c1c(C)c2cnc(Nc3ccc4c(c3)OC[C@H]3CN(C5CCOCC5)CCN43)nc2n(C2CCCC2)c1=O` [Compound 1R], for which the IC50 was below 100 nM.
In the case of `CC(=O)c1c(C)c2cnc(Nc3ccc4c(c3)OC[C@@H]3CN(C5CCN(C)CC5)CCN43)nc2n(C2CCCC2)c1=O` [Compound 2S], the IC50 was below 50 nM.
The same measure, in the same setting: the same measure for `CC(=O)c1c(C)c2cnc(Nc3ccc4c(c3)OC[C@@H]3CN(C5CCNCC5)CCN43)nc2n(C2CCCC2)c1=O` [Compound 3S]: below 100 nM.

The target of the next data set is CDK9/CycT1 (Homo sapiens, UniProt P50750). In words: CDK9 kinase activity inhibition assay (ADP-Glo). As to conditions: read-out: CDK9 kinase inhibitory activity (IC50). Format: biochemical. On the procedure:
as §3, §4
For `CC(=O)c1c(C)c2cnc(Nc3ccc4c(c3)OC[C@H]3CN(C5CCOCC5)CCN43)nc2n(C2CCCC2)c1=O` [Compound 1R], the IC50 is below 50 nM.
Same read-out and setting: to `CC(=O)c1c(C)c2cnc(Nc3ccc4c(c3)OC[C@@H]3CN(C5CCN(C)CC5)CCN43)nc2n(C2CCCC2)c1=O` [Compound 2S] belongs below 20 nM; to `CC(=O)c1c(C)c2cnc(Nc3ccc4c(c3)OC[C@@H]3CN(C5CCNCC5)CCN43)nc2n(C2CCCC2)c1=O` [Compound 3S], below 20 nM.

A further data set addresses CDK16/CycY (Homo sapiens, UniProt Q00536). In words: CDK16 kinase activity inhibition assay (ADP-Glo). The data set is classed as biochemical. As to conditions: read-out: CDK16 kinase inhibitory activity (IC50). On the procedure:
as §3, §4
As to `CC(=O)c1c(C)c2cnc(Nc3ccc4c(c3)OC[C@H]3CN(C5CCOCC5)CCN43)nc2n(C2CCCC2)c1=O` [Compound 1R], the IC50 is below 100 nM.
Turning to `CC(=O)c1c(C)c2cnc(Nc3ccc4c(c3)OC[C@@H]3CN(C5CCN(C)CC5)CCN43)nc2n(C2CCCC2)c1=O` [Compound 2S], the IC50 was below 100 nM.
The same measure, in the same setting: to `CC(=O)c1c(C)c2cnc(Nc3ccc4c(c3)OC[C@@H]3CN(C5CCNCC5)CCN43)nc2n(C2CCCC2)c1=O` [Compound 3S] belongs below 50 nM.

Another data set concerns the target TRKA (Homo sapiens, UniProt P04629). In words: TRKA kinase activity inhibition assay (caliper mobility shift).
Details: not given
The data set is classed as biochemical. On the procedure:
2) TRKA Kinase Activity Inhibition Assay
TRKA protein kinase activity was measured by caliper mobility shift assay. Compounds were dissolved in DMSO to make up 10 mM stock solutions. Prepare 1× kinase reaction buffer to serially dilute compounds. 250 nL 100× final concentration of the test compounds were transferred to destination plate 3573 by dispenser Echo 550. Prepare a 2.5× final concentration of kinase solution with 1× kinase buffer. Add 10 μL of 2.5× final kinase solution to compound wells and positive control wells; add 10 μL of 1× kinase buffer to negative control wells. Centrifuge at 1000 rpm for 30 s, shake and mix the reaction plate and incubate at room temperature for 10 min. Prepare a mixture of ATP and kinase substrate solution at 5/3× final concentration with 1× kinase buffer. The reaction was initiated by adding 15 μL of the mixed solution. Centrifuge the 384-well plate at 1000 rpm for 30 s, shake and mix well, and incubate at room temperature for the corresponding time. Add 30 μL of stop solution to stop the kinase reaction, centrifuge at 1000 rpm for 30 s, mix by shaking, and read the conversion rate data with Caliper EZ Reader. Convert conversion to inhibition data (% inhibition=(max DMSO well conversion−sample well conversion)/(max DMSO well conversion−min negative control conversion)*100). Wherein max refers to the conversion rate of the DMSO control, and min refers to the conversion rate of the non-enzymatic control. Draw a curve with the concentration and inhibition rate of the compound as abscissa and ordinate, and use XLFit excel add-in version 4.3.1 software to fit the curve and calculate IC50.
With `CC(=O)c1c(C)c2cnc(Nc3ccc4c(c3)OC[C@@H]3CN(C5CCN(C)CC5)CCN43)nc2n(C2CCCC2)c1=O` [Compound 2S], the concentration for half-maximal inhibition (IC50) was below 10 nM.

The same data set, now with this note: read-out: TRKA kinase inhibitory activity (IC50).
As for `CC(=O)c1c(C)c2cnc(Nc3ccc4c(c3)OC[C@H]3CN(C5CCOCC5)CCN43)nc2n(C2CCCC2)c1=O` [Compound 1R], the concentration for half-maximal inhibition (IC50) was below 10 nM.
On the same count and under the same terms, to `CC(=O)c1c(C)c2cnc(Nc3ccc4c(c3)OC[C@@H]3CN(C5CCNCC5)CCN43)nc2n(C2CCCC2)c1=O` [Compound 3S] belongs below 10 nM.

Test system in the next data set: not listed separately
The experiment in a line: in vivo. As to conditions: male, SD, rat, po, 3 mg/kg.
Experimental: (§5) Instruments: XEVO TQ-S LC/MS instrument produced by Waters. All measurement data is collected and processed by Masslynx V4.1 software, and the data is calculated and processed by Microsoft Excel. Using WinNonLin 8.0 software, the statistical moment method was used to calculate the pharmacokinetic parameters. Mainly include kinetic parameters Tmax, T1/2, Cmax, AUClast etc. Column: ACQUITY UPLC BEH C18 (2.1 mm×50 mm, 1.7 μm); column temperature 40° C.; mobile phase A is water (0.1% formic acid), mobile phase B is acetonitrile, flow rate is 0.350 ml/min, gradient elution is adopted, the elution gradient is 0.50 min: 10% B; 1.50 min: 10% B; 2.30 min: 95% B; 2.31 min: 10% B; 3.00 min: stop. Injection volume: 5 μL.
(§6) Animals: 3 male SD rats with a weight range of 200-220 g. After purchase, they will be kept in the laboratory of the Experimental Animal Center for 2 days and then used. They will be fasted for 12 hours predose and 4 hours after dosing. Drinking water is free during the test. After the rats were gavage, blood samples were taken according to the established time point.
(§7) Solvent: 0.5% Methylcellulose (aqueous solution containing 0.4% Tween 80 and 1% ethanol). Preparation of the solution for intragastrical administration: accurately weigh the compound, add it to the solvent, and use ultrasound at room temperature for 5 minutes to completely dissolve the drug, and prepare a 0.3 mg/ml medicinal solution.
(§8) A single administration was also used to study the pharmacokinetics of the drug sample in rats.
(§9) After intragastrical administration, blood was taken from the orbit at 0.25, 0.5, 1, 2, 4, 9, 12 and 24 hours, and placed in a plastic centrifuge tube pretreated with sodium heparin. After centrifugation, the supernatant plasma was used for LC-MS/MS analysis.
(§10) Accurately weigh the compounds to prepare different concentrations, perform quantitative analysis on mass spectrometry to establish a standard curve, and then test the concentration of the above-mentioned compound in the plasma to obtain the compound concentration at different time points. All measurement data are collected and processed by relevant software, and the statistical moment method is used to calculate the pharmacokinetic parameters (mainly including kinetic parameters Tmax, T1/2, Cmax, AUClast etc).
Usually AUC(0-t) stands for exposure summed from dosing to a finite time, without extrapolation to infinity. High values mean more exposure, low ones less exposure. The term Cmax denotes the peak of the concentration-time curve. As a reminder, the Tmax is the time from dosing to the highest level. As to `CC(=O)c1c(C)c2cnc(Nc3ccc4c(c3)OC[C@@H]3CN(C5CCN(C)CC5)CCN43)nc2n(C2CCCC2)c1=O` [Compound 2S], the AUC(0-t) came out at 1910 ng·h/mL, the maximum concentration (Cmax) was determined as 114 ng/mL and the Tmax amounted to 13.3 h.

Test system in a further data set: not listed separately
The experiment in a line: Pharmacokinetic study in rats (intragastrical administration, plasma LC-MS/MS). As to conditions: male, SD, rat, po, 3 mg/kg.
Experimental: as §5, §6, §7, §8, §9, §10
As usually defined, the half-life is how long it takes for the measured level to halve. Higher therefore signals slow decline. Regarding `CC(=O)c1c(C)c2cnc(Nc3ccc4c(c3)OC[C@H]3CN(C5CCOCC5)CCN43)nc2n(C2CCCC2)c1=O` [Compound 1R], the AUC(0-t) is 274 ng·h/mL, the highest level (Cmax) was 43.4 ng/mL, the time to peak (Tmax) stood at 2 h and the half-life was 2.96 h.
The compound `CC(=O)c1c(C)c2cnc(Nc3ccc4c(c3)OC[C@@H]3CN(C5CCN(C)CC5)CCN43)nc2n(C2CCCC2)c1=O` [Compound 2S] had a half-life above 12 h.
Take `CC(=O)c1c(C)c2cnc(Nc3ccc4c(c3)OC[C@@H]3CN(C5CCNCC5)CCN43)nc2n(C2CCCC2)c1=O` [Compound 3S]: the AUC(0-t) stood at 1230 ng·h/mL, the Cmax was found to be 85.7 ng/mL, the time to peak (Tmax) came to 5.33 h and the half-life was 5.68 h.
